Source: patent publication US10668094B2, “Selective inhibitors of Alpha2-containing isoforms of Na,K-ATPase and use thereof for reduction of intraocular pressure” (Yeda Research and Development Co. Ltd., priority 2015, dated 2020)
Where two headings read alike, the source gives them in different places.

Tests used:
[1] = biological target: human Na,K-ATPase α1β1FXYD1 (Homo sapiens (Human), UniProt P05023); type: biochemical
[2] = biological target: human Na,K-ATPase α2β1FXYD1 (Homo sapiens, UniProt P50993); type: biochemical
[3] = system: human Na,K-ATPase α2β1FXYD1; type: biochemical
[4] = biological target: human Na,K-ATPase α2β2FXYD1 (Homo sapiens (Human), UniProt P50993); type: biochemical
[5] = biological target: human Na,K-ATPase α2β3FXYD1 (Homo sapiens (Human), UniProt P50993+P54709); test: biochemical; type: biochemical
basal IOP in rabbits = test: Basal IOP in rabbits, topical administration; type: in vivo, rabbit

| Compound | Ki ([1]; read-out: Ki in nM ± SEM α1β1) | Ki ([2]; read-out: Ki in nM ± SEM α2β1) | Selectivity Ki ratio α1β1/α2β1 [3] | Selectivity Ki ratio α1β1/α2β2 [4] | Ki ([4]; read-out: Ki in nM ± SEM α2β2) | Selectivity Ki ratio α1β1/α2β3 [5] | Ki ([5]; read-out: Ki in nM ± SEM α2β3) | also measured |
| --- | --- | --- | --- | --- | --- | --- | --- | --- |
| CC1CN(Cc2ccccc2)CCC(O[C@@H]2[C@H](C)O[C@@H](O[C@@H]3[C@H](C)O[C@@H](O[C@H]4CC[C@@]5(C)C(CCC6C5C[C@H](O)[C@]5(C)[C@@H](C7=CC(=O)OC7)CC[C@]65O)C4)C[C@@H]3O)C[C@@H]2O)O1 (stereo partly drawn) [DBz, 4-(3S,5R,8R,9S,10S,12R,13S,14S,17R)-3-(((2S,4S,5R,6R)-5-(((2S,4S,5S,6R)-5 ((4-benzyl-2-methyl-1,4-oxazepan-7-yl)oxy)-4-hydroxy-6-methyltetrahydro-2H-pyran-2-ypoxy)-4-hydroxy-6-methyltetrahydro-2H-pyran-2-yl)oxy)-12,14-dihydroxy-10,13-dimethythexadecahydro-1H-cyclopenta[a]phenanthren-17-yl)furan-2(5H)-one] | 57.9 ± 15.5 nM | 10.1 ± 2.2 nM | 5.7 | 8.5 | 6.8 ± 1.2 nM | 10.3 | 5.6 ± 1.6 nM | selectivity for α2β3 over α1β1 (Ki α1β1:α2β3 ratio) [5]: 10-12 fold |
| [O]=[V]([OH])([OH])[OH] [Vanadate, vanadate, reference compound] | – | – | – | – | – | – | – | Ki ([1]; read-out: apparent vanadate affinity α1β1): 480 nM; Ki ([2]; Example 2, vanadate titration, read-out: apparent vanadate affinity α2β1): 3500 nM; Ki ([4]; read-out: apparent vanadate affinity α2β2): 34000 nM; Ki ([5]; read-out: apparent vanadate affinity α2β3): 1900 nM |
| CC(C)OC(=O)CCC/C=C\C[C@@H]1[C@@H](CC[C@@H](O)CCc2ccccc2)[C@H](O)C[C@@H]1O [Latanoprost, reference compound] | – | – | – | – | – | – | – | time after which IOP returned to the control value (basal IOP in rabbits; 1 mM DcB, 0.005% Latanoprost): 12 h; steady-state IOP as % of the unchanged control values (basal IOP in rabbits; after 3-8 hours): 85%; steady-state IOP lower than basal IOP (basal IOP in rabbits; after 3-8 hours, basal IOP 17-18 mmHg, 1 mM DcB, 0.005% Latanoprost): 2.6±0.11 mmHg |
| CC1CN(C(C)C)CCC(O[C@@H]2[C@H](C)O[C@@H](O[C@@H]3[C@H](C)O[C@@H](O[C@H]4CC[C@@]5(C)C(CCC6C5C[C@H](O)[C@]5(C)[C@@H](C7=CC(=O)OC7)CC[C@]65O)C4)C[C@@H]3O)C[C@@H]2O)O1 (stereo partly shown) [DiP] | 149 nM | 28.9 ± 1.7 nM | 5.1 | 8.9 | 16.7 ± 1.9 nM | 14.4 | 10.3 ± 1.8 nM | – |
| CC1CN(CC(F)(F)F)CCC(O[C@@H]2[C@H](C)O[C@@H](O[C@@H]3[C@H](C)O[C@@H](O[C@H]4CC[C@@]5(C)C(CCC6C5C[C@H](O)[C@]5(C)[C@@H](C7=CC(=O)OC7)CC[C@]65O)C4)C[C@@H]3O)C[C@@H]2O)O1 (stereo partly shown) [DCF3] | 119 nM | 28.6 ± 0.9 nM | 4.1 | 6.5 | 18.1 ± 1.9 nM | 9.6 | 12.4 ± 1.5 nM | – |
| CC1CN(CC2CC(C)(C)C2)CCC(O[C@@H]2[C@H](C)O[C@@H](O[C@@H]3[C@H](C)O[C@@H](O[C@H]4CC[C@@]5(C)C(CCC6C5C[C@H](O)[C@]5(C)[C@@H](C7=CC(=O)OC7)CC[C@]65O)C4)C[C@@H]3O)C[C@@H]2O)O1 (stereo partly drawn) [DMDMcB, 4-((3S,5R,8R,9S10S,12R,13S,14S,17R)-3-(((2S,4S,5R,6R)-5-(((2S,4S,5S,6R)-5-((4-((3,3-dimethylcyclobutyl)methyl)-2-methyl-1,4-oxazepan-7-yl)oxy)-4-hydroxy-6-methyltetrahydro-2H-pyran-2-yl)oxy)-4-hydroxy-6-methyltetrahydro-2H-pyran-2-yl)oxy)-12,14-dihydroxy-10,13-dimethylhexadecahydro-1H-cyclopenta[a]phenanthren-17-yl)furan-2(5H)-one] | 31.6 ± 0.5 nM | 8.6 ± 1.4 nM | 3.69 | 6.16 | 5.1 ± 0.5 nM | 8.19 | 3.9 ± 0.7 nM | selectivity for α2β3 over α1β1 (Ki α1β1:α2β3 ratio) [5]: 10-12 fold |
| CC(=O)O[C@H]1C[C@H](O[C@H]2[C@@H](OC(C)=O)C[C@H](O[C@H]3CC[C@@]4(C)[C@H](CC[C@@H]5[C@@H]4C[C@@H](OC(C)=O)[C@]4(C)[C@@H](C6=CC(=O)OC6)CC[C@]54O)C3)O[C@@H]2C)O[C@H](C)[C@H]1OC1CCN(C2CCC2)CC(C)O1 (stereo partly drawn) [TrisAcDcB, (2R,3R,4S,6R)-6-(((3S,5R,8R,9S,10S,12R,13S,14S,17R)-12-acetoxy-14-hydroxy-10,13-dimethyl-17-(5-oxo-2,5-dihydrofuran-3-yl)hexadecahydro-1H-cyclopenta[a]phenanthren-3-yl)oxy)-3-(((2S,4S,5R,6R)-4-acetoxy-5-((4-cyclobutyl-2-methyl-1,4-oxazepam-7-yl)oxy)-6-methyltetrahydro-2H-pyran-2-yl)oxy)-2-methyltetrahydro-2H-pyran-4-yl acetate] | – | – | – | – | – | – | – | Ki of α1β1 higher than that of DcB [1]: ~100 fold; Ki ([1]; read-out: Ki of α1β1FXYD1): 13200 ± 6500 nM; Ki of α2β1 higher than that of DcB [2]: ~300 fold; Ki ([2]; read-out: Ki of α2β1FXYD1): 2500 ± 490 nM; time of return of IOP to the control level (basal IOP in rabbits; 0.05, 0.1, 0.2 mM): 12 h; time to minimum IOP (basal IOP in rabbits; 0.05, 0.1, 0.2 mM): 5 to 6 h; maximal effect on IOP compared with parent DcB (basal IOP in rabbits; 0.05-0.2 mM prodrug): essentially equal to that produced by the parent DcB; minimum IOP (basal IOP in rabbits; from 15-16 mmHg, 0.05, 0.1, 0.2 mM): 12 mmHg; onset of effect on basal IOP (basal IOP in rabbits; one 30 μl drop, 0.05, 0.1, 0.2 mM): no effect was observed at the first four hours |
| CC1CN(C2CCCCC2)CCC(O[C@@H]2C(C)O[C@@H](OC3C(C)OC(O[C@H]4CC[C@@]5(C)C(CCC6C5CC(O)[C@]5(C)[C@@H](C7=CC(=O)OC7)CC[C@]65O)C4)C[C@@H]3O)C[C@@H]2O)O1 (stereo in doubt) [DcH, 4-((3S,5R,8R,9S,10S,12R,13S,14S,17R)-3-(((2S,4S,5R,6R)-5-(((2S,4S,5S,6R)-5((4-cyclohexyl-2-methyl-1,4-oxazepan-7-yl)oxy)-4-hydroxy-6-methyltetrahydro-2H-pyran-2-yl)oxy)-4-hydroxy-6-methyltetrahydro-2H-pyran-2-yl)oxy)-12,14-dihydroxy-10,13-dimethylhexadecahydro-1H-cyclopenta[a]phenanthren-17-yl)furan-2(5H)-one] | 70.4 ± 4.1 nM | 15.2 ± 3.7 nM | 4.6 | 4.6 | 15.3 ± 2.9 nM | 10.1 | 11.7 ± 4.5 nM | selectivity for α2β3 over α1β1 (Ki α1β1:α2β3 ratio) [5]: 10-12 fold |
| CC1CN(C(C)(C)C)CCC(O[C@@H]2[C@H](C)O[C@@H](O[C@@H]3[C@H](C)O[C@@H](O[C@H]4CC[C@@]5(C)C(CCC6C5C[C@H](O)[C@]5(C)[C@@H](C7=CC(=O)OC7)CC[C@]65O)C4)C[C@@H]3O)C[C@@H]2O)O1 (stereo partly shown) [DtB] | 135 nM | 21.6 ± 5.6 nM | 6.2 | 7.3 | 18.4 ± 1.1 nM | 8.2 | 16.3 ± 0.28 nM | – |
| CC1CN(CCS(C)(=O)=O)CCC(O[C@@H]2C(C)O[C@@H](OC3C(C)OC(O[C@H]4CC[C@@]5(C)C(CCC6C5CC(O)[C@]5(C)[C@@H](C7=CC(=O)OC7)CC[C@]65O)C4)C[C@@H]3O)C[C@@H]2O)O1 (stereo in doubt) [DESM, 4-((3S,5R,8R,9S,10S,12R,13S,14S,17R)-12,14-dihydroxy-3-(((2S,4S,5R,6R)-4-hydroxy-5-(((2S,4S,5S,6R)-4-hydroxy-6-methyl-5-((2-methyl-4-(2-(methylsulfonyl)ethyl)-1,4-oxazepan-7-yl)oxy)tetrahydro-2H-pyran-2-yl)oxy)-6-methyltetrahydro-2H-pyran-2-yl)oxy)-10,13-dimethylhexadecahydro-1H-cyclopenta[a]phenanthren-17-yl)furan-2(5H)-one] | 464 ± 14 nM | 49.2 ± 1.9 nM | 9.4 | 14.6 | 31.7 ± 3.2 nM | 18.8 | 24.7 ± 2.1 nM | – |
| CCCN1CCC(O[C@@H]2[C@H](C)O[C@@H](O[C@@H]3[C@H](C)O[C@@H](O[C@H]4CC[C@@]5(C)C(CCC6C5C[C@H](O)[C@]5(C)[C@@H](C7=CC(=O)OC7)CC[C@]65O)C4)C[C@@H]3O)C[C@@H]2O)OC(C)C1 (stereo partly shown) [DP] | 87.7 ± 7.9 nM | 18.3 ± 1.68 nM | 4.8 | 8.3 | 10.5 ± 1.8 nM | 8.8 | 9.8 ± 1.1 nM | – |
| CC1CN(C[Si](C)(C)C)CCC(OC2C(O)CC(OC3C(O)CC(OC4CCC5(C)C(CCC6C5CC(O)C5(C)C(C7=CC(=O)OC7)CCC65O)C4)OC3C)OC2C)O1 (stereo not shown) [DTMS] | 72.6 ± 17.6 nM | 24.3 ± 4 nM | 3 | 5.1 | 14.3 ± 1.3 nM | 6.5 | 11.1 ± 1.6 nM | – |
